The NIST ThermoML archive (doi:10.1016/j.jct.2004.07.008)

Experiment: xn = mol fraction of the nth substance listed
Settings: 100 kPa, Liquid

CCNCC [diethylamine] + O
mass density [kg/m3]
Settings	278.15 K	288.15 K	293.15 K	298.15 K	308.15 K
x1 = 0.0006	999.491	998.664	997.751	996.626	993.562
x1 = 0.0024	997.912	997.039	996.154	994.988	991.942
x1 = 0.0035	996.932	996.037	995.136	993.969	990.903
x1 = 0.0044	996.139	995.23	994.323	993.151	990.065
x1 = 0.0056	995.225	994.285	993.371	992.182	989.066
x1 = 0.0064	994.57	993.602	992.679	991.472	988.353
x1 = 0.0081	993.249	992.212	991.279	990.04	986.873
x1 = 0.0097	992.04	990.934	989.98	988.714	985.476
x1 = 0.0172	987.17	985.63	984.539	983.09	979.496
x1 = 0.0291	980.983	978.376	976.96	975.088	970.666
x1 = 0.04	976.381	972.612	970.596	968.411	962.812
x1 = 0.0799	957.078	949.316	945.543	941.882	936.416
x1 = 0.0962	–	939.288	–	932.747	927.169
x1 = 0.1023	–	935.289	–	928.614	923.171
x1 = 0.1157	–	927.131	–	918.262	–
x1 = 0.1191	933.215	925.183	920.953	916.971	910.193
x1 = 0.1717	905.317	896.85	892.377	888.178	883.177
x1 = 0.229	–	871.09	–	–	–
x1 = 0.2382	876.611	867.217	863.096	858.163	848.844
x1 = 0.2939	859.045	–	842.233	837.568	827.974
x1 = 0.3003	857.537	844.712	839.967	835.41	825.737
x1 = 0.3501	–	829.202	824.477	819.781	810.104
x1 = 0.3558	838.534	–	822.73	817.933	808.149
x1 = 0.3911	–	–	–	809.086	–
x1 = 0.4057	–	814.027	809.021	–	794.354
x1 = 0.4407	815.342	–	–	795.926	–
x1 = 0.4625	810.256	799.75	795.056	789.779	779.967
x1 = 0.4844	805.352	–	–	784.888	–
x1 = 0.5091	799.695	–	–	–	769.213
x1 = 0.523	–	–	781.055	–	766.718
x1 = 0.5287	–	–	–	775.014	–
x1 = 0.6144	779.133	768.288	763.538	759.804	748.753
x1 = 0.6304	775.979	–	760.21	–	745.249
x1 = 0.7017	763.313	–	747.769	742.589	732.049
x1 = 0.7022	–	752.772	–	742.461	732.247
x1 = 0.726	–	–	742.965	–	–
x1 = 0.7549	–	–	738.917	733.676	723.048
x1 = 0.7771	751.837	–	735.541	730.331	719.687
x1 = 0.805	749.039	737.02	731.853	726.558	–
x1 = 0.8523	741.596	729.358	724.287	718.777	708.199
x1 = 0.8755	735.261	–	–	715.631	–
x1 = 0.8822	–	725.559	719.965	714.728	–
x1 = 0.8941	–	–	718.394	713.135	702.403
x1 = 0.9019	732.413	–	–	712.05	–
x1 = 0.931	–	718.71	713.312	708.033	–
x1 = 0.941	726.848	–	712.088	706.818	696.061
x1 = 0.9589	724.66	–	–	704.314	–
x1 = 0.9727	–	–	708.394	703.131	692.387
x1 = 0.979	721.447	–	–	701.729	–
x1 = 1	719.94	709.52	704.59	698.97	688.29
